# From patent US11505570B2, “Organic acid salt of nicotinamide riboside, composition including organic acid salt, and preparation methods of organic acid salt and composition” (SHENZHEN DIECKMANN TECH CO., LTD, priority 2020, dated 2022)
# Assay: Stability test: storage in nitrogen-filled sealed bottles, purity test by HPLC every month
# Type: physicochemical
# Settings: for purity by HPLC, Time (month) 1: 1 month; for purity by HPLC, Time (month) 2: 2 months; for purity by HPLC, Time (month) 3: 3 months; for purity by HPLC, Time (month) 4: 4 months; for purity by HPLC, Time (month) 5: 5 months; for purity by HPLC, Time (month) 6: 6 months; for Decomposition rate: over 6 months; for purity by HPLC, Time (month) 0: initial sample (0 month); for stability, molar ratio (NR to organic acid) 1:2 compared with 1:1: in words, comparison with the corresponding 1:1 product
# Method: I. Preparation of samples
# 1. The products of Examples 1 to 4, Examples 10 to 13, and the comparative example were each dispensed into 13 bottles, each of 50 mg; and the bottles were filled with nitrogen and sealed. One of the bottles (initial sample) was first tested, and the remaining 12 bottles were divided into two groups (each with 6 bottles) and stored. The bottles in each group were numbered 1 to 6 according to a test sequence. The two groups of bottles were stored at 2° C. to 8° C. and −20° C., respectively; and one sample was tested every month.
# 2. The products of Examples 6 to 9 and Example 14 were each dispensed into 7 bottles, each of 50 mg; and the bottles were filled with nitrogen and sealed. One of the bottles (initial sample) was first tested, and the remaining 6 bottles were numbered 1 to 6 according to a test sequence and then stored at 2° C. to 8° C. One sample was tested every month.
# II. Preparation of test sample solutions
# One bottle of sample was taken at a time and prepared into a 5 mL or 10 mL solution using a 5 mL or 10 mL volumetric flask, and then the solution was filtered through a membrane to be ready for purity test by HPLC.
# Mobile phase: isocratic elution: 5% water (0.1% formic acid)+95% methanol (0.1% formic acid)
# Temperature and humidity: 23.0° C. and 54% RH
# Sample dissolution: dissolution by methanol
# Chromatographic column: ODS-2, 4.6 * 250 mm, 5 μm, and constant pressure: 12 Mpa to 13 Mpa
# Running time: ≥15 min IV.
# [1] = Table 2, stored at 2° C. to 8° C.
SMILES,"purity by HPLC, Time (month) 1 (Table 1, stored at −20° C.)","purity by HPLC, Time (month) 2 (Table 1, stored at −20° C.)","purity by HPLC, Time (month) 3 (Table 1, stored at −20° C.)","purity by HPLC, Time (month) 4 (Table 1, stored at −20° C.)","purity by HPLC, Time (month) 5 (Table 1, stored at −20° C.)","purity by HPLC, Time (month) 6 (Table 1, stored at −20° C.)","Decomposition rate (Table 1, stored at −20° C.) [%]","purity by HPLC, Time (month) 0 (Table 1, −20° C.)","purity by HPLC, Time (month) 0 (Table 2, 2° C. to 8° C.)","purity by HPLC, Time (month) 1 [1]","purity by HPLC, Time (month) 2 [1]","purity by HPLC, Time (month) 3 [1]","purity by HPLC, Time (month) 4 [1]","purity by HPLC, Time (month) 5 [1]","purity by HPLC, Time (month) 6 [1]",Decomposition rate [1] [%],"stability, molar ratio (NR to organic acid) 1:2 compared with 1:1"
"NC(=O)c1ccc[n+]([C@@H]2O[C@H](CO)[C@@H](O)[C@H]2O)c1.[Cl-] [Comparative Example, chlorine salt of NR, reference compound]",98.284,98.087,97.701,97.449,97.575,97.210,1.33,98.525,98.525,98.171,98.206,97.540,97.612,97.384,97.109,1.44,–
"NC(=O)c1ccc[n+]([C@@H]2O[C@H](CO)[C@@H](O)[C@H]2O)c1.O=C(O)CC(O)(CC(=O)O)C(=O)[O-] [Example 1, citrate of NR (1:1)]",98.828,98.450,98.190,98.252,97.978,97.814,1.13,98.930,98.930,98.198,98.409,98.171,97.957,97.823,97.670,1.27,–
"NC(=O)c1ccc[n+]([C@@H]2O[C@H](CO)[C@@H](O)[C@H]2O)c1.O=C(O)CC(O)(CC(=O)O)C(=O)O.O=C(O)CC(O)(CC(=O)O)C(=O)[O-] [Example 2, citrate of NR (1:2)]",98.317,98.079,98.168,97.933,97.806,97.788,0.69,98.471,98.471,98.492,98.240,98.097,97.626,97.704,97.498,0.99,higher stability
"NC(=O)c1ccc[n+]([C@@H]2O[C@H](CO)[C@@H](O)[C@H]2O)c1.O=C([O-])C[C@H](O)C(=O)O [Example 3, malate of NR (1:1)]",98.691,98.310,98.288,98.076,97.912,97.645,0.94,98.573,98.573,98.482,98.185,98.270,97.946,97.592,97.337,1.25,–
"NC(=O)c1ccc[n+]([C@@H]2O[C@H](CO)[C@@H](O)[C@H]2O)c1.O=C(O)C[C@H](O)C(=O)O.O=C([O-])C[C@H](O)C(=O)O [Example 4, malate of NR (1:2)]",98.547,98.629,98.316,98.207,98.081,98.100,0.73,98.818,98.818,98.424,98.360,98.298,98.239,97.707,97.816,1.01,higher stability
